Measured values reported in patent publication US4521422A, “Aryl and heteroaryl[7-(aryl and heteroaryl)pyrazolo[1,5-a]pyrimidin-3-yl]methanones” (American Cyanamid Company, priority 1984, dated 1985).

Experiments:
[1] = system: Clonic Seizures Caused by Pentylenetetrazole in Rats; test: Protection against clonic seizures caused by pentylenetetrazole in rats; assay type: in vivo; details: Rattus norvegicus, oral or i.p., read-out: % of Rats Protected; for responders at 25 mg/kg: pentylenetetrazole 23 mg/kg i.v. at 30 or 60 min
Method in brief: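 Rats (at least 4 per group) given single or graded oral or intraperitoneal doses in starch/PEG/Polysorbate 80 vehicle. After 30 or 60 min, pentylenetetrazole 23 mg/kg i.v. was given, a dose expected to induce clonic seizures in 99% of unprotected rats. Protection from convulsions was scored.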

[2] = system: Nonconditioned Passive Avoidance in Rats; test: Nonconditioned passive avoidance (conflict) test in rats; assay type: in vivo, rat (Wistar); parameters: key: Active: considered active if the number of shocks received by the test group is significantly higher than the control group by the Mann-Witney U test; details: oral or i.p.
Method: Another test which has been used to assess anti-anxiety effects is a nonconditioned passive avoidance procedure described by [J. R. Vogel, B. Beer and D. E. Clody, "A Simple and Reliable Conflict Procedure for Testing Anti-Anxiety Agents", Psychopharmacologia, 21, 1-7 (1971)]. A conflict situation is induced in rats by a modification of this method.
Groups of 6 naive, Wistar strain rats, weighing 200-240 g each were deprived of water for 48 hours and food for 24 hours. The test compounds were administered in single or graded, oral or intraperitoneal doses, suspended in a 2% starch vehicle containing 0.5% v/v polyethylene glycol and one drop of polysorbate 80. Control animals received the vehicle alone. At 30 to 60 minutes each rat was placed in an individual plexiglass chamber. Water was available ad libitum from a tap located in the rear of the chamber. A 0.7 milliampere DC shocking current was established between the stainless steel grid floor and the tap. After 20 licks of non-shocked drinking, a shock was delivered for 2 seconds and then further shocks were delivered on a ratio of one shock for 2 seconds for every 20 licks. This was continued for a total of 3 minutes. The number of shocks taken by each rat during the 3 minute interval was recorded and compared to a control group. […]

[3] = system: Brain-Specific Receptors of Rats; test: Inhibition of the binding of 3H-benzodiazepine to brain-specific receptors of rats; parameters: species or system rat (Wistar); details: 3H-diazepam 1.5 nM or 3H-flunitrazepam 1.0 nM; rat cortex P2 fraction; test concentration not given
[4] = pentylenetetrazole 23 mg/kg i.v.

COc1ccc(C(=O)c2cnn3c(-c4cccnc4)ccnc23)cc1OC [(3,4-dimethoxyphenyl)[7-(3-pyridinyl)pyrazolo[1,5-a]pyrimidin-3-yl]methanone]
responders at 25 mg/kg [1]: 87% | Result (nonconditioned passive avoidance) ([2]; dose 25.0 mg/kg): Active | % Inhibition [3]: 75%

O=C(c1ccccc1)c1cnn2c(-c3ccc(F)cc3)ccnc12 [[7-(4-fluorophenyl)pyrazolo[1,5-a]pyrimidin-3-yl]phenyl-methanone]
responders at 25 mg/kg [1]: 100% | Result (nonconditioned passive avoidance) ([2]; dose 25.0 mg/kg): Active | % Inhibition [3]: 18%

CC(=O)N(C)c1cccc(-c2ccnc3c(C(=O)c4ccco4)cnn23)c1 [N-[3-[3-(2-Furancarbonyl)pyrazolo[1,5-a]pyrimidin-7-yl]phenyl]-N-methylacetamide]
responders at 25 mg/kg [1]: 100% | Result (nonconditioned passive avoidance) ([2]; dose 25.0 mg/kg): Active

O=C(c1ccc(Cl)cc1)c1cnn2c(-c3cccc(C(F)(F)F)c3)ccnc12 [(4-chlorophenyl)[7-[3-(trifluoromethyl)phenyl]pyrazolo[1,5-a]pyrimidin-3-yl]methanone]
Result (nonconditioned passive avoidance) ([2]; dose 25.0 mg/kg): Active | % Inhibition [3]: 81%

O=C(c1ccccc1F)c1cnn2c(-c3cccnc3)ccnc12 [(2-fluorophenyl)[7-(3-pyridinyl)pyrazolo[1,5-a]pyrimidin-3-yl]methanone]
responders at 25 mg/kg [1]: 100% | Result (nonconditioned passive avoidance) ([2]; dose 25.0 mg/kg): Active

O=C(c1ccccc1F)c1cnn2c(-c3ccncc3)ccnc12 [(2-fluorophenyl)[7-(4-pyridinyl)pyrazolo[1,5-a]pyrimidin-3-yl]methanone]
responders at 25 mg/kg [1]: 50% | Result (nonconditioned passive avoidance) ([2]; dose 25.0 mg/kg): Active

O=C(c1ccncc1)c1cnn2c(-c3cccc(C(F)(F)F)c3)ccnc12 [4-pyridinyl[7-[3-(trifluoromethyl)phenyl]pyrazolo[1,5-a]pyrimidin-3-yl]methanone]
responders at 25 mg/kg [1]: 100% | Result (nonconditioned passive avoidance) ([2]; dose 25.0 mg/kg): Active

CCC(=O)N(C)c1cccc(-c2ccnc3c(C(=O)c4ccco4)cnn23)c1 [N-[3-[3-(2-Furanylcarbonyl)pyrazolo[1,5-a]pyrimidin-7-yl]phenyl]-N-methylpropanamide]
responders at 6 mg/kg ([1]; dose 6.0 mg/kg, pentylenetetrazole 23 mg/kg i.v.): 100% | Result (nonconditioned passive avoidance) ([2]; dose 25.0 mg/kg): Active

CCNc1cccc(-c2ccnc3c(C(=O)c4ccccc4)cnn23)c1 [[7-[3-(Ethylamino)phenyl]pyrazolo[1,5-a]pyrimidin-3-yl]phenylmethanone]
responders at 25 mg/kg [1]: 100% | Result (nonconditioned passive avoidance) ([2]; dose 25.0 mg/kg): Active

O=C(c1cccc(F)c1)c1cnn2c(-c3ccncc3)ccnc12 [(3-fluorophenyl)[7-(4-pyridinyl)pyrazolo[1,5-a]pyrimidin-3-yl]methanone]
responders at 25 mg/kg [1]: 100% | Result (nonconditioned passive avoidance) ([2]; dose 25.0 mg/kg): Active

CCN(C(C)=O)c1cccc(-c2ccnc3c(C(=O)c4ccccc4)cnn23)c1 [N-[3-(3-Benzoylpyrazolo[1,5-a]pyrimidin-7-yl)phenyl]-N-ethylacetamide]
responders at 6.2 mg/kg ([1]; dose 6.2 mg/kg, pentylenetetrazole 23 mg/kg i.v.): 100% | Result (nonconditioned passive avoidance) ([2]; dose 25.0 mg/kg): Active

O=C(c1ccncc1)c1cnn2c(-c3ccncc3)ccnc12 [4-pyridinyl[7-(4-pyridinyl)pyrazolo[1,5-a]pyrimidin-3-yl]methanone]
Result (nonconditioned passive avoidance) ([2]; dose 25.0 mg/kg): Active | % Inhibition [3]: 11%

CCc1ccc(C(=O)c2cnn3c(-c4cccnc4)ccnc23)cc1 [(4-ethylphenyl)[7-(3-pyridinyl)pyrazolo[1,5-a]pyrimidin-3-yl]methanone]
responders at 25 mg/kg [1]: 100% | Result (nonconditioned passive avoidance) ([2]; dose 25.0 mg/kg): Active

CCNc1cccc(-c2ccnc3c(C(=O)c4ccco4)cnn23)c1 [[7-[3-(Ethylamino)phenyl]pyrazolo[1,5-a]pyrimidin-3-yl]-2-furanylmethanone]
responders at 25 mg/kg [1]: 100% | Result (nonconditioned passive avoidance) ([2]; dose 25.0 mg/kg): Active

O=C(c1ccncc1)c1cnn2c(-c3cccnc3)ccnc12 [4-pyridinyl[7-(3-pyridinyl)pyrazolo[1,5-a]pyrimidin-3-yl]methanone]
responders at 25 mg/kg [1]: 100% | Result (nonconditioned passive avoidance) ([2]; dose 25.0 mg/kg): Active

O=C(c1ccc2c(c1)OCO2)c1cnn2c(-c3cccnc3)ccnc12 [1,3-benzodioxol-5-yl[7-(3-pyridinyl)pyrazolo[1,5-a]pyrimidin-3-yl]methanone]
responders at 25 mg/kg [1]: 50% | Result (nonconditioned passive avoidance) ([2]; dose 25.0 mg/kg): Active

CCC(=O)N(C)c1cccc(-c2ccnc3c(C(=O)c4ccccc4)cnn23)c1 [N-[3-(3-Benzoylpyrazolo[1,5-a]pyrimidin-7-yl)phenyl]-N-methylpropanamide]
responders at 0.8 mg/kg [1, 4]: 100% | Result (nonconditioned passive avoidance) ([2]; dose 1.5 mg/kg): Active

O=C(c1ccc(F)cc1)c1cnn2c(-c3cccnc3)ccnc12 [(4-fluorophenyl)[7-(3-pyridinyl)pyrazolo[1,5-a]pyrimidin-3-yl]methanone]
responders at 25 mg/kg [1]: 63% | Result (nonconditioned passive avoidance) ([2]; dose 25.0 mg/kg): Active

COc1cccc(C(=O)c2cnn3c(-c4cccnc4)ccnc23)c1 [(3-methoxyphenyl)[7-(3-pyridinyl)pyrazolo[1,5-a]pyrimidin-3-yl]methanone]
responders at 25 mg/kg [1]: 75% | Result (nonconditioned passive avoidance) ([2]; dose 25.0 mg/kg): Active

Cc1ccc(C(=O)c2cnn3c(-c4cccc(C(F)(F)F)c4)ccnc23)cc1 [(4-methylphenyl)[7-[3-(trifluoromethyl)phenyl]pyrazolo[1,5-a]pyrimidin-3-yl]methanone]
responders at 25 mg/kg [1]: 50% | Result (nonconditioned passive avoidance) ([2]; dose 12.5 mg/kg): Active

CN(C)c1ccc(C(=O)c2cnn3c(-c4cccnc4)ccnc23)cc1 [[4-(dimethylamino)phenyl][7-(3-pyridinyl)pyrazolo[1,5-a]pyrimidin-3-yl]methanone]
responders at 25 mg/kg [1]: 100% | Result (nonconditioned passive avoidance) ([2]; dose 25.0 mg/kg): Active

O=C(c1cccc(C(F)(F)F)c1)c1cnn2c(-c3cccnc3)ccnc12 [[7-(3-pyridinyl)pyrazolo[1,5-a]pyrimidin-3-yl][3-(trifluoromethyl)phenyl]methanone]
Result (nonconditioned passive avoidance) ([2]; dose 25.0 mg/kg): Active | % Inhibition [3]: 38%

CC(=O)N(C)c1cccc(-c2ccnc3c(C(=O)c4ccccc4)cnn23)c1 [N-[3-(3-Benzoylpyrazolo[1,5-a]pyrimidin-7-yl)phenyl]-N-methylacetamide]
responders at 0.8 mg/kg [1, 4]: 75% | Result (nonconditioned passive avoidance) ([2]; dose 3.1 mg/kg): Active

CCN(C(C)=O)c1cccc(-c2ccnc3c(C(=O)c4ccco4)cnn23)c1 [N--ethyl-N--[3-[3-(2-furanylcarbonyl)pyrazolo[1,5-a]pyrimidin-7-yl]phenyl]acetamide]
responders at 12.5 mg/kg [1, 4]: 100% | Result (nonconditioned passive avoidance) ([2]; dose 12.5 mg/kg): Active

CN(C)c1ccc(C(=O)c2cnn3c(-c4cccc(C(F)(F)F)c4)ccnc23)cc1 [[4-(dimethylamino)phenyl][7-[3-(trifluoromethyl)phenyl]pyrazolo[1,5-a]pyrimidin-3-yl]methanone]
responders at 25 mg/kg [1]: 100% | Result (nonconditioned passive avoidance) ([2]; dose 25.0 mg/kg): Active

O=C(c1ccccc1F)c1cnn2c(-c3cccc(C(F)(F)F)c3)ccnc12 [(2-fluorophenyl)[7-[3-(trifluoromethyl)phenyl]pyrazolo[1,5-a]pyrimidin-3-yl]methanone]
responders at 25 mg/kg [1]: 50% | Result (nonconditioned passive avoidance) ([2]; dose 25.0 mg/kg): Active

CC(=O)N(C)c1ccc(-c2ccnc3c(C(=O)c4ccccc4)cnn23)cc1 [N--[4-(3-benzoylpyrazolo[1,5-a]pyrimidin-7-yl)phenyl]-N--methylacetamide]
Result (nonconditioned passive avoidance) ([2]; dose 25.0 mg/kg): Active

CCC(=O)N(CC)c1cccc(-c2ccnc3c(C(=O)c4ccccc4)cnn23)c1 [N-[3-(3-Benzoylpyrazolo[1,5-a]pyrimidin-7-yl)phenyl]N-ethylpropanamide]
responders at 12.5 mg/kg [1, 4]: 100% | Result (nonconditioned passive avoidance) ([2]; dose 12.5 mg/kg): Active

O=C(c1ccsc1)c1cnn2c(-c3cccnc3)ccnc12 [[7-(3-pyridinyl)pyrazolo[1,5-a]pyrimidin-3-yl]-3-thienylmethanone]
responders at 25 mg/kg [1]: 50% | Result (nonconditioned passive avoidance) ([2]; dose 25.0 mg/kg): Active
